Each block holds one molecule with its values, some of them ahead of it.
How the values were obtained:
[1] = Riboflavin 5-phosphate sodium salt degradation under 450 nm LED with or without sodium ascorbate; assay type: physicochemical
Description: Stock solutions of Riboflavin5-phosphate sodium salt were created by adding 2.2 mg of granulated Riboflavin 5-phosphate sodium salt Riboflavin 5-phosphate sodium salt into a 10 mL volumetric flask with a 95% H2O: 5% ethanol to give a concentration of 0.46 mM. Adding 1 mL of the stock solution to another 10 mL was used to create a 46 μM solution. Adding 0.5 mL to a 25 mL volumetric flask gives a concentration of 9 μM.
Stock solutions of sodium ascorbate were created by adding 9.1 mg of granulated sodium ascorbate into a 10 mL volumetric flask with a 95% H2O: 5% ethanol to give a concentration of 4.6 mM. Adding 0.1 mL of the stock solution to another 10 mL was used to create a 46 μM solution. Adding 0.05 mL to a 25 mL volumetric flask gives a concentration of −9 μM, which could be multiplied to give the number of equivalents needed for each study.
For some riboflavin decomposition experiments a home-built 450 nm LED was used to irradiate samples. The quartz cuvette was placed 11.5 cm away from the light source and the measured intensity was 1750 mW/m^2.
A JASCO V-750 spectrophotometer (from JASCO Easton, Maryland, USA) was used for recording UV-Vis spectra. Quartz cuvettes were used for sample irradiations as they have an optical window that allows for spectra to be collected as low as 200 nm. IgorPro8 software was used for plotting and processing the data.
Fractional RF Absorbance is the absorbance signal at 446 nm measured at an irradiation time divided by the absorbance signal at 446 nm at t=0. The concentration of RF was held constant at 46 μM, denoted by “1” and the concentration of sodium ascorbate (SA) was varied in multiples of 46 μM, denoted by “1”, “5”, “10”, “50” (i.e. 46 μM, 230 μM, 460 μM, and 2.3 mM).
To test the depletion of Riboflavin 5-phosphate sodium salt (RF) in presence of sodium ascorbate, experiments were run in triplicate using a 450 nm LED with a measured power of 1750 mW/m2. […]

[2] = Thioxanthone depletion in solution under 365 nm irradiation (UV-Vis); assay type: physicochemical
Description: Solutions of photosensitizer (9-10 μM, 1 eq), […] (9-50 μM, 1-5 eq) and singlet oxygen quenching molecules (1-1000 equivalents) were prepared in a 10 mL volumetric flask either. Solvents for these studies were either 95:5 DI H2O:Ethanol or pure ethanol. A starting UV-Vis spectrum was obtained as a baseline. Solutions were irradiated in a quartz cuvette using appropriate LED's at a measured distance to ensure reproducible results. Spectra were collected at intervals of 1 min, 5 min, 15 minutes, 30 minutes, and every 15 minutes until the […] was depleted. In cases where nitrosoaniline absorption signals were quenched faster, the spectra were collected as smaller intervals typically been 1-5 minutes.
Stock solutions of thioxanthone were created by adding […] of granulated thioxanthone into a 10 mL volumetric flask with pure ethanol to give a concentration of 2.3 mM. Adding 0.1 mL of the stock solution to another 10 mL was used to create a 23 μM solution. Adding 0.1 mL to a 25 mL volumetric flask gives a concentration of −9 μM.
Stock solutions of imidazole were created by adding […] of granulated imidazole into a 10 mL volumetric flask with a 95% H2O: 5% ethanol or pure ethanol to give a concentration of […]. […]
Some thioxanthone decomposition experiments were performed by using a home-built 365 nm LED. […] The light intensity was measured to be roughly 2000 mW/m^2 from each LED. […]

[3] = in methanol solutions; cited from earlier work

loss of absorbance signal at 446 nm ([1]; RF 46 μM by itself, 450 nm LED 1750 mW/m2, after 30 minutes of irradiation): roughly 50%
loss of absorbance signal at 446 nm ([1]; RF 46 μM with 5× sodium ascorbate (230 μM), 450 nm LED, in about 10 minutes): roughly 50%
loss of absorbance signal at 446 nm ([1]; RF 46 μM with 10× sodium ascorbate (460 μM), 450 nm LED, in about 10 minutes): roughly 50%
Structure (SMILES): Cc1cc2nc3c(=O)[nH]c(=O)nc-3n(C[C@H](O)[C@H](O)[C@H](O)COP(=O)([O-])O)c2cc1C.[Na+] [Riboflavin 5-phosphate sodium salt]

Structure (SMILES): c1c[nH]cn1 [imidazole]
effect of added imidazole on rate of thioxanthone degradation ([2]; thioxanthone 23 μM, imidazole 23 μM to 230 μM, 365 nm): increases the rate of thioxanthone degradation

depletion of thioxanthone ([2]; thioxanthone 23 μM in ethanol, 365 nm irradiation): complete after two hours of irradiation
Structure (SMILES): O=c1c2ccccc2sc2ccccc12 [thioxanthone, reference compound]
triplet quantum yield [3]: 0.56

From patent US20240374769A1, “LIGHT ACTIVATED CLEANING COMPOSITION” (The Procter & Gamble Company, priority 2023, published 2024)
